Measurements from patent publication US20240246942A1, “KINASE INHIBITORS FOR THE TREATMENT OF NEURODEGENERATIVE DISEASES” (priority 2020, published 2024).

What was measured:
Assay in all cases: biochemical
[1] = molecular target: T1, panel of 374 wild-type kinases (Homo sapiens, UniProt O96013); conditions: read-out: % Enzyme Activity (relative to DMSO controls), kinase PAK4
T1 construct: purchased Reaction Biology Corporation

[2] = molecular target: T2, panel of 374 wild-type kinases (Homo sapiens, UniProt Q9BXA6); conditions: read-out: % Enzyme Activity (relative to DMSO controls), kinase SSTK/TSSK6
T2 construct: purchased Reaction Biology Corporation
T2 sequence (Q9BXA6 whole entry): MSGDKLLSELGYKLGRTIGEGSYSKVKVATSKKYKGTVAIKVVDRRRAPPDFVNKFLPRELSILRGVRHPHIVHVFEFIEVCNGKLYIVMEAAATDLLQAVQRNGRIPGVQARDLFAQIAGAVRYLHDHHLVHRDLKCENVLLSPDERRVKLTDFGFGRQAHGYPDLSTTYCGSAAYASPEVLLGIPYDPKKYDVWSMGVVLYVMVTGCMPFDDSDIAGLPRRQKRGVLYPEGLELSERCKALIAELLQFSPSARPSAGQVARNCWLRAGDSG

[3] = molecular target: T3, panel of 374 wild-type kinases (Homo sapiens, UniProt P07947); conditions: read-out: % Enzyme Activity (relative to DMSO controls), kinase YES/YES1
T3 construct: purchased Reaction Biology Corporation

[4] = molecular target: T4, panel of 374 wild-type kinases (Homo sapiens, UniProt P22612); conditions: read-out: % Enzyme Activity (relative to DMSO controls), kinase PKAcg
T4 construct: purchased Reaction Biology Corporation
T4 sequence (P22612 whole entry): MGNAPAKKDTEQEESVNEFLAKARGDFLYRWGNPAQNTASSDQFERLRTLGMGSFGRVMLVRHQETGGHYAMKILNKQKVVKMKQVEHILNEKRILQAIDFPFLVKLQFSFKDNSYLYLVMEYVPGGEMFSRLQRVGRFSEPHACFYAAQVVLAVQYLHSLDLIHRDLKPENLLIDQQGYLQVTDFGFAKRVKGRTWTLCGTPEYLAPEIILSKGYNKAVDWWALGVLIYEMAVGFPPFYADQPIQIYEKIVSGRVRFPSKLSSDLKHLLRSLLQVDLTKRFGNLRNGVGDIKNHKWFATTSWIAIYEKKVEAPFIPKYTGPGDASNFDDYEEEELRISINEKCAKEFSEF

[5] = molecular target: T5, panel of 374 wild-type kinases (Homo sapiens, UniProt Q9NY57); conditions: read-out: % Enzyme Activity (relative to DMSO controls), kinase STK32B/YANK2
T5 construct: purchased Reaction Biology Corporation

[6] = molecular target: T6, panel of 374 wild-type kinases (Homo sapiens, UniProt P09769); conditions: read-out: % Enzyme Activity (relative to DMSO controls), FGR
T6 construct: purchased Reaction Biology Corporation

[7] = molecular target: T7, panel of 374 wild-type kinases (Homo sapiens, UniProt O75116); conditions: read-out: % Enzyme Activity (relative to DMSO controls), kinase ROCK2
T7 construct: purchased Reaction Biology Corporation
T7 sequence (O75116 whole entry): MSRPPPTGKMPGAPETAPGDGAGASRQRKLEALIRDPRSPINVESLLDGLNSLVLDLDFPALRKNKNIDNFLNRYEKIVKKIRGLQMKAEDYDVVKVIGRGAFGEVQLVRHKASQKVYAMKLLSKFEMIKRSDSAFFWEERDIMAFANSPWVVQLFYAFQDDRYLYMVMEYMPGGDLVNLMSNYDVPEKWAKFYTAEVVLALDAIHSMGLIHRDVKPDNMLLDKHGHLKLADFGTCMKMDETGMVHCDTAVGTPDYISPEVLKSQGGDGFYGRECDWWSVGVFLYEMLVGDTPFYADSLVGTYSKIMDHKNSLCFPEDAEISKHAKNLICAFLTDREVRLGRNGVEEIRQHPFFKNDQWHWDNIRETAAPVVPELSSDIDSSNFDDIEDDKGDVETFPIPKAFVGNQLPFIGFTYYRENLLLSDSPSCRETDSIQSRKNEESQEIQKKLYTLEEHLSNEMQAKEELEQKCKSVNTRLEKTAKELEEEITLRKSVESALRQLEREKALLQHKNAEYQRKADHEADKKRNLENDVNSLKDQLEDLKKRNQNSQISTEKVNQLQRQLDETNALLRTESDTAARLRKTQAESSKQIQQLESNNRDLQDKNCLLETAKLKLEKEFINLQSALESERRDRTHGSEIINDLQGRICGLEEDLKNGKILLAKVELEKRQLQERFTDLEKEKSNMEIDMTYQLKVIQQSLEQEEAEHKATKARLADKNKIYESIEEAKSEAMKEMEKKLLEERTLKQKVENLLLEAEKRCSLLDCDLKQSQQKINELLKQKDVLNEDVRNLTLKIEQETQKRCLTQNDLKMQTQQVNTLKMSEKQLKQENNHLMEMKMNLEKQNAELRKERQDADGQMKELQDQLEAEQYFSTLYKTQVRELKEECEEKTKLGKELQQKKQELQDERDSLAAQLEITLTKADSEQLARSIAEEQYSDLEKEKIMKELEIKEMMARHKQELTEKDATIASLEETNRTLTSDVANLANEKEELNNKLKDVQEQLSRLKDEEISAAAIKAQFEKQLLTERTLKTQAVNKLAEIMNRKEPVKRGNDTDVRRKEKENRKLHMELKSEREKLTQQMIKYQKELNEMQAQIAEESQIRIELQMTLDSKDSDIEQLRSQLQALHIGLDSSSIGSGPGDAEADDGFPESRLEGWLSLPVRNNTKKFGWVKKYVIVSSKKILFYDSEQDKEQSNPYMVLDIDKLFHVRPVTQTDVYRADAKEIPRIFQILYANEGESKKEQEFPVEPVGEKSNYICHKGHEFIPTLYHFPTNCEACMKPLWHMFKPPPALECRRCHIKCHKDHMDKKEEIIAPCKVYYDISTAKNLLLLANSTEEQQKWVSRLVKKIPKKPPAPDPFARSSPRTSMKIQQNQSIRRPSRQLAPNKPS

[8] = molecular target: T8, panel of 374 wild-type kinases (Homo sapiens, UniProt Q05513); conditions: read-out: % Enzyme Activity (relative to DMSO controls), kinase PKCzeta
T8 construct: purchased Reaction Biology Corporation
T8 sequence (Q05513 1-592): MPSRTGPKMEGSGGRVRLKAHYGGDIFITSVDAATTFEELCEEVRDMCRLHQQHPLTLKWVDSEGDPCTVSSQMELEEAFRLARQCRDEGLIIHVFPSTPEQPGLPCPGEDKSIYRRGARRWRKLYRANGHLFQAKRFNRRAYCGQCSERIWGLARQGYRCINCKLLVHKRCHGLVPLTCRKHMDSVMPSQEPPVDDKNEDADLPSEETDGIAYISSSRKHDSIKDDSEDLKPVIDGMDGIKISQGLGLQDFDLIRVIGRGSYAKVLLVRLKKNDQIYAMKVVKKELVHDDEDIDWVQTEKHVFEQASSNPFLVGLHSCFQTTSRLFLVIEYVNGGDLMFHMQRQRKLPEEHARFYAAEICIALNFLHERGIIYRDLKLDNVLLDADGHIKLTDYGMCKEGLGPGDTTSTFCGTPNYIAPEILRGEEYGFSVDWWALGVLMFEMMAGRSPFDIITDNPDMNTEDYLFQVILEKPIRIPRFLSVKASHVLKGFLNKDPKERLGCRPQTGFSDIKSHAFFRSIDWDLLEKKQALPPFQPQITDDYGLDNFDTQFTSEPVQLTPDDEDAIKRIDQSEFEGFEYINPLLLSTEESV

[9] = molecular target: T9, panel of 374 wild-type kinases (Homo sapiens, UniProt Q9Y2H1); conditions: read-out: % Enzyme Activity (relative to DMSO controls), kinase STK38L/NDR2
T9 construct: purchased Reaction Biology Corporation

[10] = molecular target: T10, panel of 374 wild-type kinases (Homo sapiens, UniProt P80192); conditions: read-out: % Enzyme Activity (relative to DMSO controls), MLK1/MAP3K9
T10 construct: purchased Reaction Biology Corporation

[11] = molecular target: T11, panel of 374 wild-type kinases (Homo sapiens, UniProt P07949); conditions: read-out: % Enzyme Activity (relative to DMSO controls), kinase RET
T11 construct: purchased Reaction Biology Corporation
T11 sequence (P07949 29-1114): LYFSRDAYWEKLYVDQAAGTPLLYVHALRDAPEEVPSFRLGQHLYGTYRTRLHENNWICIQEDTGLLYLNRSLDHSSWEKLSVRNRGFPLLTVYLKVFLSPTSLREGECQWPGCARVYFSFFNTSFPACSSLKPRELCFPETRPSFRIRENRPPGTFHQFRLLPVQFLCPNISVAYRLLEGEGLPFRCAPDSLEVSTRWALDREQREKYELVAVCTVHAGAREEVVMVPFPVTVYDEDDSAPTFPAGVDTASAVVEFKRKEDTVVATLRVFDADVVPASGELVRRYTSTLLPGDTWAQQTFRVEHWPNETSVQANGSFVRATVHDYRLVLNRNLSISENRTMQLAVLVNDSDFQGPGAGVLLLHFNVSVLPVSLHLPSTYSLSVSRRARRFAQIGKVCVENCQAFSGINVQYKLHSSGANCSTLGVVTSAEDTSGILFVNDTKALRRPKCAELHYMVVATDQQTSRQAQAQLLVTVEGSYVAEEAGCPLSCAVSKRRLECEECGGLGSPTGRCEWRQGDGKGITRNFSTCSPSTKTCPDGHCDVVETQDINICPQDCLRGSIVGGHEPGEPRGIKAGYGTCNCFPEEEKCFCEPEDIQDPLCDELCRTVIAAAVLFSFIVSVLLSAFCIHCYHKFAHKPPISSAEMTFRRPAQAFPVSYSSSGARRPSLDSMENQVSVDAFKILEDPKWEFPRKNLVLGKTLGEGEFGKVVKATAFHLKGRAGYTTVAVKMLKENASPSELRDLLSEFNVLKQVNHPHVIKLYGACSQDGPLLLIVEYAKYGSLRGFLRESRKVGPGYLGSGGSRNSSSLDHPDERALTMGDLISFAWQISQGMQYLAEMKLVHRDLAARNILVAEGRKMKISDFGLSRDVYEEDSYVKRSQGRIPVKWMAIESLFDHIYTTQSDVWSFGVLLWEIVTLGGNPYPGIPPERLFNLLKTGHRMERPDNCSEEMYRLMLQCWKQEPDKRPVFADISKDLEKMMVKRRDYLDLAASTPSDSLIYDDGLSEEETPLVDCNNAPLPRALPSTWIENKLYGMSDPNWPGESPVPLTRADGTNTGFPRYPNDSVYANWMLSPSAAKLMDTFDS

[12] = molecular target: T12, panel of 374 wild-type kinases (Homo sapiens, UniProt Q13873); conditions: read-out: % Enzyme Activity (relative to DMSO controls), BMPR2
T12 construct: purchased Reaction Biology Corporation
T12 sequence (Q13873 27-1038): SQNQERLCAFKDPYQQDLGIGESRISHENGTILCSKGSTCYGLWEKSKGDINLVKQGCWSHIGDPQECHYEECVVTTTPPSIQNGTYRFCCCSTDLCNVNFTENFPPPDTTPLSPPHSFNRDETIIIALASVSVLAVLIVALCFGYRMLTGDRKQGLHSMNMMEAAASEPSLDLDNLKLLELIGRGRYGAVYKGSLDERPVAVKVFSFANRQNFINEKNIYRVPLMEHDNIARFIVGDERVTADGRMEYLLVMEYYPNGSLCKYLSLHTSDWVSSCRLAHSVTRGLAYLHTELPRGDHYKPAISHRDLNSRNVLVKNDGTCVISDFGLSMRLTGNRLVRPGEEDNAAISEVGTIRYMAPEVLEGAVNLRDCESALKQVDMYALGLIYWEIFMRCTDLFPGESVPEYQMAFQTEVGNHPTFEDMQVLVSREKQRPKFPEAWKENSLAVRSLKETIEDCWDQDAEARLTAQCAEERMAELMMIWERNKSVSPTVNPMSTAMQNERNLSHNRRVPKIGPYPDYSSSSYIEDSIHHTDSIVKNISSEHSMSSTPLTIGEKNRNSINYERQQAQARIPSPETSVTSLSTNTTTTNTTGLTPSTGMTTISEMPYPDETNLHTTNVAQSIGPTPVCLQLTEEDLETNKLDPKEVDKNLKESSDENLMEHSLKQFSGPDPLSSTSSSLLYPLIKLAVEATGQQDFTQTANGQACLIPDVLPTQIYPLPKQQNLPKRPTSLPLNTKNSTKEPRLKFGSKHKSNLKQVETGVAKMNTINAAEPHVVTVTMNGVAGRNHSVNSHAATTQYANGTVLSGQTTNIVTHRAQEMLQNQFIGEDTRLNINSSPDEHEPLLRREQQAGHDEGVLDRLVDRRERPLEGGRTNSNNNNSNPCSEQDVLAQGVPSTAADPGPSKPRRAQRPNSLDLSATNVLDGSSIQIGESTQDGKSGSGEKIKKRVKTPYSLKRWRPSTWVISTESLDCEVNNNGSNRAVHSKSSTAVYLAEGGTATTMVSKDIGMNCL

[13] = molecular target: T13, panel of 374 wild-type kinases (Homo sapiens, UniProt Q5TCY1); conditions: kinase TTBK1, read-out: % Enzyme Activity (relative to DMSO controls)
T13 construct: purchased Reaction Biology Corporation
T13 sequence (Q5TCY1 whole entry): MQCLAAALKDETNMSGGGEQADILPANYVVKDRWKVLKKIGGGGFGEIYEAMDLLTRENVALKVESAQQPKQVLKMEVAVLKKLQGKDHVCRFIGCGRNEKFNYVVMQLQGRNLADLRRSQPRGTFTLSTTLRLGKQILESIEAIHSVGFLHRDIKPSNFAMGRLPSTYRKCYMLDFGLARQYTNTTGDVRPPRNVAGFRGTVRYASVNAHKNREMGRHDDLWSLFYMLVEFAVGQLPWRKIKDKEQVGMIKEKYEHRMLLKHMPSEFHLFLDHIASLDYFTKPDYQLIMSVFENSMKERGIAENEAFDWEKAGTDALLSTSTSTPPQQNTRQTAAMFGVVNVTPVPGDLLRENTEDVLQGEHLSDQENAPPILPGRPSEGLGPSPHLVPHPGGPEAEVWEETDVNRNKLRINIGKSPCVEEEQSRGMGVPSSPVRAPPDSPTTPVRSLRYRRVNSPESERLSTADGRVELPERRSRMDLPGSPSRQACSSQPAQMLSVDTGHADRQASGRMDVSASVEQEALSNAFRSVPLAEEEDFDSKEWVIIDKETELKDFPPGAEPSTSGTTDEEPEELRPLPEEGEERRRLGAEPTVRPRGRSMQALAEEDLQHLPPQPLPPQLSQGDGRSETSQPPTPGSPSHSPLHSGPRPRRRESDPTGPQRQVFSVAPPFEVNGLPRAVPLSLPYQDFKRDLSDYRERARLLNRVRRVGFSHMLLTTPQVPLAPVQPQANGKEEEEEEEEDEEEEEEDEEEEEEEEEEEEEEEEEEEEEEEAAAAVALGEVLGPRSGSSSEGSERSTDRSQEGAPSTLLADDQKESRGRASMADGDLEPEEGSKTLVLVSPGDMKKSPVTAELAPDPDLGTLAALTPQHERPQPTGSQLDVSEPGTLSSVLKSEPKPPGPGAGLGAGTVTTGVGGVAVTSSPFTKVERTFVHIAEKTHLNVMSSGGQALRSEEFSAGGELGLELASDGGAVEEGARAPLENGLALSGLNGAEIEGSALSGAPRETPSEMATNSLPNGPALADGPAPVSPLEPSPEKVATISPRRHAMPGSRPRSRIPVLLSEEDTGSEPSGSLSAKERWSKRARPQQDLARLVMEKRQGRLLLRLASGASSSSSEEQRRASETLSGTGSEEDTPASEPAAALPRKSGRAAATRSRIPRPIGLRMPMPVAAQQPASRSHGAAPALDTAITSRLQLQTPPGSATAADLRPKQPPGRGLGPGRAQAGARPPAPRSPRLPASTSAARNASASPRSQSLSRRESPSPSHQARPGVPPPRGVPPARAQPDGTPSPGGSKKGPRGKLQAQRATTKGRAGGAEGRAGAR

[14] = molecular target: T14, panel of 374 wild-type kinases (Homo sapiens, UniProt Q8NEV4); conditions: MYO3A, read-out: % Enzyme Activity (relative to DMSO controls)
T14 construct: purchased Reaction Biology Corporation

T1 sequence (O96013 whole entry): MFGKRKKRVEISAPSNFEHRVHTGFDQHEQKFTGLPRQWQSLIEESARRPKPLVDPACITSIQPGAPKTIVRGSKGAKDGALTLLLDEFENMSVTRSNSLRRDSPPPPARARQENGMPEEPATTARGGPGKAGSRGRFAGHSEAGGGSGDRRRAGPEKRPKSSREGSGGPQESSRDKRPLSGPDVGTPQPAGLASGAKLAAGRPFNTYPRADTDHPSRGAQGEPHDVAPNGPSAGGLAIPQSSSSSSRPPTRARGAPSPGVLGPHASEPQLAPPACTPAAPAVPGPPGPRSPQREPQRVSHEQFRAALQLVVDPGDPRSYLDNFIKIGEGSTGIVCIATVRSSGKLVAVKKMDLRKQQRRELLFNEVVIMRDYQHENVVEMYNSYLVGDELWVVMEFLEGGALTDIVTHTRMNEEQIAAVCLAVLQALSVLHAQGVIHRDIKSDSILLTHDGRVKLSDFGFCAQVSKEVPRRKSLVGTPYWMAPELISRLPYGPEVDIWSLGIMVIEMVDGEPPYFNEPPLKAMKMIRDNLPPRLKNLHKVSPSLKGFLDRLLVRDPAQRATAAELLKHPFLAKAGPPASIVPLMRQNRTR

Row | SMILES | remaining activity at 5 µM [1] | remaining activity at 5 µM [2] | remaining activity at 5 µM [3] | remaining activity at 5 µM [4] | remaining activity at 5 µM [5] | remaining activity at 5 µM [6] | remaining activity at 5 µM [7] | remaining activity at 5 µM [8] | remaining activity at 5 µM [9] | remaining activity at 5 µM [10] | remaining activity at 5 µM [11] | remaining activity at 5 µM [12] | remaining activity at 5 µM [13] | remaining activity at 5 µM [14] | also measured
1 | O=C(Nc1cnn(-c2csc(C(=O)NC3COC3)c2)c1)Nc1ccccc1Cl [Compound 17, 4-(4-(3-(2-chlorophenyl)ureido)-1H-pyrazol-1-yl)-N-(oxetan-3-yl)thiophene-2-carboxamide] | 98.9% | 103% | 96.5% | 104% | 122% | 90% | 100% | 105% | 103% | 95.1% | 97.8% | 110% | 97.2% | 94.5% | –
2 | O=C(Nc1cnn(-c2csc(C(=O)NC3COC3)c2)c1)Nc1c(F)cccc1Cl [Compound 25, 4-(4-(3-(2-chloro-6-fluorophenyl)ureido)-1H-pyrazol-1-yl)-N-(oxetan-3-yl)thiophene-2-carboxamide] | 107% | 103% | 91% | 97.6% | 103% | 95.5% | 107% | 93.6% | 94.8% | 88.5% | 98.1% | 77.2% | 82.3% | 82.8% | –
3 | Cc1sc(C(=O)NC2COC2)cc1-n1cc(NC(=O)Nc2c(F)cccc2Cl)cn1 [Compound 27, 4-(4-(3-(2-chloro-6-fluorophenyl)ureido)-1H-pyrazol-1-yl)-5-methyl-N-(oxetan-3-yl)thiophene-2-carboxamide] | – | – | – | – | – | – | – | – | – | – | – | – | – | – | remaining activity at 10 µM ([1]; 10 uM): 106%; remaining activity at 10 µM ([2]; 10 uM): 94%; remaining activity at 10 µM ([3]; 10 uM): 81.4%; remaining activity at 10 µM ([4]; 10 uM): 99%; remaining activity at 10 µM ([5]; 10 uM): 89.8%; remaining activity at 10 µM ([6]; 10 uM): 80.2%; remaining activity at 10 µM ([7]; 10 uM): 93.6%; remaining activity at 10 µM ([8]; 10 uM): 104%; remaining activity at 10 µM ([9]; 10 uM): 95.1%; remaining activity at 10 µM ([10]; 10 uM): 87.5%; remaining activity at 10 µM ([11]; 10 uM): 113%; remaining activity at 10 µM ([12]; 10 uM): 84.5%; remaining activity at 10 µM ([13]; 10 uM): 113%; remaining activity at 10 µM ([14]; 10 uM): 91.1%
